Experimental data reported in US20110230476A1, “PI3 KINASE INHIBITORS AND USES THEREOF” (AVILA THERAPEUTICS, INC., priority 2009, published 2011).
Entries after “also recorded” stand apart in the source; their conditions may differ.

Legend:
PI3Kα (p110α/p85α) = target: T1, PI3Kα (p110α/p85α) (Homo sapiens, UniProt P42336); assay: HTRF assay, potency against active PI3Kα; type: biochemical; conditions: HTRF; [ATP]=50 μM, [di-C8-PIP2]=10 μM; 30 min pre-incubation; read-out: PI3Kα Inhibition
T1 construct: purchased BPS Bioscience (San Diego, Calif.) or Millipore (Billerica, Mass.)
T1 sequence (P42336 whole entry): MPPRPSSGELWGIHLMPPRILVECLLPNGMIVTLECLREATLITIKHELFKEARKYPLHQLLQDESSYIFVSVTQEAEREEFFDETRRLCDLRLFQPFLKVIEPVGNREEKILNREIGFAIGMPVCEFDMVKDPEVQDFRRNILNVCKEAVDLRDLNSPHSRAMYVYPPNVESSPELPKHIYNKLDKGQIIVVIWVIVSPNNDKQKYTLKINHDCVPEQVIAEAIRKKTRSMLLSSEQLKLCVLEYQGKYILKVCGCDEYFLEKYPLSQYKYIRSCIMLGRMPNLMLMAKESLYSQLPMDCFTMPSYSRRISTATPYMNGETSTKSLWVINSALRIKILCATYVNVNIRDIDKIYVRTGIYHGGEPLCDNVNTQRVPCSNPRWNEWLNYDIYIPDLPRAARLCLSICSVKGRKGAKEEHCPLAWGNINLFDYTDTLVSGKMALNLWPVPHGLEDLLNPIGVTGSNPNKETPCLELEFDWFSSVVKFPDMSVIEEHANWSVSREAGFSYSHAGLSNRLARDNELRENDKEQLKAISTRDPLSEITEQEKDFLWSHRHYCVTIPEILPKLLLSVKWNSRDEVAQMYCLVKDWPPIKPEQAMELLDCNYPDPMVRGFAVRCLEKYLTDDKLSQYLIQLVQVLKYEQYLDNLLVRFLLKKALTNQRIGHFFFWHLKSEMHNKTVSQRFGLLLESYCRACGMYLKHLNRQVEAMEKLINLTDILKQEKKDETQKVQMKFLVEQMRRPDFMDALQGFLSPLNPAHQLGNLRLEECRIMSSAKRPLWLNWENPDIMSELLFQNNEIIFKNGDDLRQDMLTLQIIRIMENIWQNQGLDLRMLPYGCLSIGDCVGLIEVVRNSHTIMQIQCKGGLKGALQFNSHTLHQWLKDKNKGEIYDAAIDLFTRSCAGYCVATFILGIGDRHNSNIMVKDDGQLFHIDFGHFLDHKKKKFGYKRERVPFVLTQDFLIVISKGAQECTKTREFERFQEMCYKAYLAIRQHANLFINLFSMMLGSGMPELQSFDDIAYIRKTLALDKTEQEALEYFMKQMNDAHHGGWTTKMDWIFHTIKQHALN
T1 sequence (P27986 whole entry partner): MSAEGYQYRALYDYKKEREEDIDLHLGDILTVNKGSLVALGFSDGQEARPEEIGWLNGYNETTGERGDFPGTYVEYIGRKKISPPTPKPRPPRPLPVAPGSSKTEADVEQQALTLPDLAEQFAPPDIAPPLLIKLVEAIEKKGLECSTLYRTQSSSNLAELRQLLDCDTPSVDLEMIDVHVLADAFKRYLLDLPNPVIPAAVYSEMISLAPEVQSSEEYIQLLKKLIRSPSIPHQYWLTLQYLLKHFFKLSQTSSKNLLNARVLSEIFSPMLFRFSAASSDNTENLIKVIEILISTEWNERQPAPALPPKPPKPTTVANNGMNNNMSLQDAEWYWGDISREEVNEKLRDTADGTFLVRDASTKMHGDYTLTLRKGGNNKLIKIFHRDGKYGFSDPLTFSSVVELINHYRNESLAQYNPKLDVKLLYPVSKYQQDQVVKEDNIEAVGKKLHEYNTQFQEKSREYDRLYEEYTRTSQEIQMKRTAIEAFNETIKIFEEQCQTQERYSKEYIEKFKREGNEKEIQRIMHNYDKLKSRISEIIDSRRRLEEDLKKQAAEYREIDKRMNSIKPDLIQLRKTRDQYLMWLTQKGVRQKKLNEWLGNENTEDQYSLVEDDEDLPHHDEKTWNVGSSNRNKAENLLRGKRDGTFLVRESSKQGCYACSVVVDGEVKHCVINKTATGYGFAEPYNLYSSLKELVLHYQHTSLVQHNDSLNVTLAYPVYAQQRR
Summary of the method: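 Active p110/p85α lipid kinase reactions were started with ATP and run 30-60 minutes at 25 °C, then stopped and developed with HTRF detection mix. HTRF ratio converted to % inhibition against ±enzyme controls; IC50 from log[inhibitor] vs response, variable slope.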

PI3Kγ (p120γ) = target: T2, PI3Kγ (p120γ) (Homo sapiens, UniProt P48736); assay: HTRF assay, potency against active PI3Kγ; type: biochemical; conditions: [ATP]=50 μM, [di-C8-PIP2]=10 μM, 30 min pre-incubation, read-out: PI3Kγ Inhibition
T2 construct: purchased BPS Bioscience (San Diego, Calif.) or Millipore (Billerica, Mass.)
T2 sequence (P48736 whole entry): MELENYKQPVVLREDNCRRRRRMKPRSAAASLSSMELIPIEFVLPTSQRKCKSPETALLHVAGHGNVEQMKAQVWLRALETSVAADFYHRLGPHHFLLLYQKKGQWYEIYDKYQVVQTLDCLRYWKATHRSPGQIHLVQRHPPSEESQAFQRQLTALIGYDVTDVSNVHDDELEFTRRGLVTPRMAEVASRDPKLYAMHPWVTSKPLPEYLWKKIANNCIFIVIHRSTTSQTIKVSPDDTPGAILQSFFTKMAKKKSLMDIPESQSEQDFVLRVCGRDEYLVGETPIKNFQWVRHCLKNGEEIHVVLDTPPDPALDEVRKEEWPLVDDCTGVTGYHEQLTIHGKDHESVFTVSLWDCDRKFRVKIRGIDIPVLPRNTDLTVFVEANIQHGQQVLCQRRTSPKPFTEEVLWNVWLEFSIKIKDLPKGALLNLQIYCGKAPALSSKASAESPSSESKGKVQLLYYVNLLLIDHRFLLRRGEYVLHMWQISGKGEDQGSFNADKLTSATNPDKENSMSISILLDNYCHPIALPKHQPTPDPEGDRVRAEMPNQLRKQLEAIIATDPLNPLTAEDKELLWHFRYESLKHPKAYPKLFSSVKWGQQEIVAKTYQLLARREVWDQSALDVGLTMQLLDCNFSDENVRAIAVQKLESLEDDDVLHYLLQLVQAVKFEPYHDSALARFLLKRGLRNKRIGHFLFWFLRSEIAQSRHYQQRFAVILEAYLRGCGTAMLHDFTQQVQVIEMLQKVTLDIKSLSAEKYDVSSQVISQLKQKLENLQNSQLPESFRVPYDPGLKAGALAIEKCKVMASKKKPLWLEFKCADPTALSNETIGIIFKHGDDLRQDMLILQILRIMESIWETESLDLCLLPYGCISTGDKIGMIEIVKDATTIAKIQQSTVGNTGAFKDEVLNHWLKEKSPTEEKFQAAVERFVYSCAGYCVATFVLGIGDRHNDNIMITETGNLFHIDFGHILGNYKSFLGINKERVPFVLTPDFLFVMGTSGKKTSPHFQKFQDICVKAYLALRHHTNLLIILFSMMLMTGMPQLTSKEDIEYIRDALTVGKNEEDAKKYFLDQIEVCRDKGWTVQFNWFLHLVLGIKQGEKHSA
Summary of the method: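 End-point competition HTRF: enzyme (p110β/p85α 0.75 nM; p120γ 2-2.5 nM) with 10 μM di-C8-PIP2 pre-incubated 30 min at 25° C with compound, then 50 μM ATP added for 30-60 min at 25° C. Stopped, detected after 1 and 18 h; IC50 from variable-slope fit.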

PI3Kβ (p110β/p85α) = target: T3, PI3Kβ (p110β/p85α) (Homo sapiens, UniProt P42338); assay: HTRF assay, potency against active PI3Kβ; type: biochemical; conditions: [ATP]=50 μM, [di-C8-PIP2]=10 μM, 30 min pre-incubation, read-out: PI3Kβ Inhibition
T3 construct: purchased BPS Bioscience (San Diego, Calif.) or Millipore (Billerica, Mass.)
T3 sequence (P42338 whole entry): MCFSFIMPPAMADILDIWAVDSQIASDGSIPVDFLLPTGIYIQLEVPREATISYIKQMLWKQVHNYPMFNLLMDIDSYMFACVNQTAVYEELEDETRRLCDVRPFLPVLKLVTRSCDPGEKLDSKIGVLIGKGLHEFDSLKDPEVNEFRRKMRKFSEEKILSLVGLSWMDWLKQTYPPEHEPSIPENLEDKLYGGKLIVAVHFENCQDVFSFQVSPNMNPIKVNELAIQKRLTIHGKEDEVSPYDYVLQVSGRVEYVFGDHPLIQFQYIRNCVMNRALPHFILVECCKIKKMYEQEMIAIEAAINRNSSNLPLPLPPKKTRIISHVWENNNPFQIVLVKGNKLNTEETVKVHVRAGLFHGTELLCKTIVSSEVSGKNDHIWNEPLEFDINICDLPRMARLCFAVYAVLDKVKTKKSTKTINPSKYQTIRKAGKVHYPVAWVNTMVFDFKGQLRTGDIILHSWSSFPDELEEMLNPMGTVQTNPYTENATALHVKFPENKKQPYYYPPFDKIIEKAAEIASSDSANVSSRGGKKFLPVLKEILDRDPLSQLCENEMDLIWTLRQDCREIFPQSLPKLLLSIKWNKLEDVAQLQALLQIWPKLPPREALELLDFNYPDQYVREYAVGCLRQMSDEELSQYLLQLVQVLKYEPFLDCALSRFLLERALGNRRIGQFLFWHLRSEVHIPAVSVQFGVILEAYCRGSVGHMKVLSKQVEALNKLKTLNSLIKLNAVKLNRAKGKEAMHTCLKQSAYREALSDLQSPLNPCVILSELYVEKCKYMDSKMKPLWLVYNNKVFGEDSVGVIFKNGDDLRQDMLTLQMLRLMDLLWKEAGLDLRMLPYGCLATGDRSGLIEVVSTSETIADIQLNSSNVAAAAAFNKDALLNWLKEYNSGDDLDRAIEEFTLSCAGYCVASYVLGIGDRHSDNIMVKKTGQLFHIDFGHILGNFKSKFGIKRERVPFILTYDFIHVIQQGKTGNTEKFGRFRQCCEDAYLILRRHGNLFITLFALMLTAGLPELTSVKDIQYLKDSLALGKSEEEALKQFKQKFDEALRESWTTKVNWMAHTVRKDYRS
T3 sequence (P27986 whole entry partner): as the sequence (P27986 whole entry partner) above
Procedure: Homogeneous Time Resolved Fluorescence (HTRF) Assay Protocol for Potency Assessment Against the Active Forms of PI3Kα, PI3Kβ, and PI3Kγ
The mechanics of the assay platform are best described by the vendor (Millipore, Billerica, Mass.) on their website at the following URL: www.millipore.com/coa/tech1/74jt4z.
Briefly, Stop solution (Stop A, #33-007 and Stop B, #33-009; 3:1 ratio) and Detection Mix (from DMC, #33-015 with DMA, #33-011 and DMB, #33-013; 18:1:1 ratio) were prepared as recommended by the manufacturer about 2 hrs prior to use. […] Lipid kinase reactions were started with the addition of 5 μL of ATP solution, mixed for 15 sec on a rotary plate shaker and incubated for 30-60 minutes at 25° C. Next, reactions were stopped with a 5 μL addition of Stop solution immediately followed by a 5 μL volume of Detection Mix. […] At the conclusion of each assay, the HTRF ratio from fluorescence emission values for each well was calculated and % Inhibition determined from averaged controls wells (+/−PI3K enzyme). % Inhibition values for each compound were then plotted against inhibitor concentration to estimate IC50 from log [Inhibitor] vs Response, Variable Slope model in GraphPad Prism from GraphPad Software (San Diego, Calif.).

PI3K = PI3K HCT116 cellular assay (Western blot); type: cell-based; conditions: Homo sapiens, HCT-116, HCT116 colon cancer cells, 1 hour incubation, read-out: PI3K Inhibition
Procedure: PI3K HCT116 Cellular Assay
Selected compounds were assayed in HCT116 colon cancer cells. […] Cells were then washed with PBS, lysed and the protein lysates were then recovered and analyzed by Western blot.

HCT116 cells = assay: HCT-116 cell proliferation assay; type: cell-based; conditions: Homo sapiens, 72 hours, Cell Titer Glo
Procedure: HCT-116 Cell Proliferation Assay
(§1) For the HCT116 Proliferation Assay, 3000 cells per well were plated in Growth Media (DMEM, 10% FBS, 1% 1-glutamine, 1% penicillin/streptomycin) in 96 well plates. The following day, compounds were added to duplicate wells at concentrations of 10 uM and 3-fold dilutions down to 40 nM. The plates were returned to the incubator for 72 hours and then the assays were developed using Cell Titer Glo (Promega, Madison, Wis.) according to manufacturer's instructions.

SK-OV-3 cells = assay: SK-OV-3 cell proliferation assay; type: cell-based; conditions: Homo sapiens; SK-OV-3 proliferation, 72 hours, Cell Titer Glo
Procedure: SK-OV-3 Cell Proliferation Assay
as §1, with “SK-OV-3 proliferation” for “HCT116 Proliferation”, “5000” for “3000”

PI3Kα = PI3Kα (Homo sapiens, UniProt P42336); assay: Mass spectrometry of intact PI3Kα (Johns Hopkins), 3 hr incubation; type: binding; parameters: Johns Hopkins; conditions: 10× fold excess of compound, MALDI
Sequence of PI3Kα (P42336 whole entry): as the sequence (P42336 whole entry) above
Sequence of PI3Kα (P27986 322-600 partner limits assumed): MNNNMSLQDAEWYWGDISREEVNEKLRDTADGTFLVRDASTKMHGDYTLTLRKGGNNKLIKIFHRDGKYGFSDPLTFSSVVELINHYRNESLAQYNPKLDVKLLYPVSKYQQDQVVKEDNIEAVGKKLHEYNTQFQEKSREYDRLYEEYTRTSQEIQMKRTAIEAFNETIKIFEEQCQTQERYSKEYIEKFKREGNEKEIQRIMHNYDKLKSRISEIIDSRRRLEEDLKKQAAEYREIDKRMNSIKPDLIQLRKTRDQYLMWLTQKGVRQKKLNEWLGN
Procedure: Mass Spectrometry for PI3K
Intact PI3Kα (Johns Hopkins) was incubated for 3 hr at a 10× fold excess of II-a-45 or II-a-49 to protein. Aliquots (3 μL) of the samples were diluted with 10 μL of 0.1% TFA prior to micro C4 ZipTipping directly onto the MALDI target using Sinapinic acid as the desorption matrix (10 mg/ml in 0.1% TFA:Acetonitrile 50:50).

Phospho-Akt(Ser473) [1] = assay: Dose response in SKOV3 cells as determined by Western blot; type: cell-based; conditions: Homo sapiens, SK-OV-3, 1 hr, Phospho-Akt normalized to total Akt, read-out: Immunoblot
Procedure: Dose Response in SKOV3 Cells as Determined by Western Blot
SKOV3 cells were plated in SKOV3 Growth Media (DMEM supplemented with 10% FBS and pen/strep) at a density of 4×10^5 cells per well of 12 well plates. Twenty four hours later the media was removed and replaced with 1 ml media containing test compound and 0.1% DMSO and cells were returned to the incubator for 1 hr. At the end of the hour, the media was removed and the cells were washed with PBS, then lysed and scraped into 30 ul of Cell Extraction Buffer (Biosource, Camarillo, Calif.) plus Complete Protease Inhibitor and PhosStop Phosphatase Inhibitor (Roche, Indianapolis, Ind.).
Cell debris was spun down at 13,000×g for 1 minute and the supernatant was taken as the cell lysate. Protein concentration of the lysate was determined by BCA Assay (Pierce Biotechnology, Rockford, Ill.) and 50 ug of protein was loaded per well onto a NuPAGE Novex 4-12% Bis-Tris gel (Invitrogen, Carlsbad, Calif.) then transferred to Immobilon PVDF-FL (Millipore, Billerica, Mass.).
The blot was blocked in Odyssey Blocking Buffer (Li-Cor Biosciences, Lincoln, Nebr.) for 1 hr then incubated overnight at 4° C. with mouse anti-Akt (#2920) and rabbit anti-Phospho-Akt(Ser473) (#9271)(Cell Signaling Technology, Boston, Mass.) antibodies, both diluted 1:1000 in PBS/Odyssey Buffer (1:1)+0.1% Tween-20. The blots were washed 3 times 5 minutes in PBS+0.2% Tween-20 then incubated for 1 hr at room temperature with fluorescently labeled secondary antibodies (Li-Cor) diluted 1:10000 in PBS/Odyssey Buffer (1:1)+0.1% Tween-20.
The blots were washed 2 times for 5 minutes in PBS+0.2% Tween-20, once in distilled water, then scanned on an Odyssey machine (Li-Cor). Band intensity was determined using the Odyssey software and Phopho-Akt signal was normalized to total Akt within samples, then expressed as a percentage of the untreated Phospho-Akt signal.

Phospho-Akt(Ser473) [2] = assay: Dose response in SKOV3 cells as determined by in-cell Western; type: cell-based; conditions: Homo sapiens, SK-OV-3; SKOV3 cells, 1 hr; read-out: pAKT Inhibition in cell Western
Summary of the method: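 SKOV3 cells treated with compound for 1 hr, then formaldehyde-fixed, permeabilised and stained overnight for phospho-Akt(Ser473) with anti-tubulin as a reference. Infrared secondary antibodies read at 680 and 800 nm channels by in-cell Western imaging.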

SKOV3 cells = assay: GI50 determinations in SKOV3 cells; type: cell-based; conditions: Homo sapiens, SK-OV-3; SKOV3 cells, 96 hours, Cell Titer Glo
Procedure: GI50 Determinations in SKOV3 Cells
A standard curve ranging from 10,000 to 50,000 cells was set up in a separate plate and allowed to adhere to the plate for 4-6 hours, at which time the plate was developed using Cell Titer-Glow (Promega, Madison, Wis.) according to manufacturer's instructions.
The next morning, 3-fold compound dilutions ranging from 10,000 nM to 40 nM were prepared in Proliferation Media containing 1% DMSO. 20 ul of each dilution was added to the SKOV3 cells plated the previous day resulting in a dose response curve from 1000 nM to 4 nM. The cells were incubated for 96 hours and then developed with Cell Titer Glo.
The cell numbers at the end of the assay were determined using the standard curve generated at the start of the assay. Growth inhibition was calculated using the following formulas and GI50s were determined by plotting the % growth inhibition vs. Log compound concentration in GraphPad.
%growth=100×(T−T0)/(C−T0)
T=Cell Number at end of assay T0=Cell Number at start of assay (5000) C=Number of cells in DMSO controls at end of assay
%growth inhibition=100−%growth

Row | Compound | IC50 (PI3Kα (p110α/p85α)) | IC50 (PI3Kγ (p120γ)) | IC50 (PI3Kβ (p110β/p85α)) | EC50 (PI3K) | EC50 (HCT116 cells) | EC50 (SK-OV-3 cells) | covalent modification of PI3Kα (PI3Kα) | positive mass shift of PI3Kα (PI3Kα) | EC50 (Phospho-Akt(Ser473) [2]) | GI50 (SKOV3 cells) | EC50 (Phospho-Akt(Ser473) [1])
1 | C=C(C)C(=O)CCC(=O)N1CCN(Cc2cc3nc(-c4cccc5[nH]ncc45)nc(N4CCOCC4)c3s2)CC1 [II-a-43, 1-(4-((2-(1H-indazol-4-yl)-4-morpholinothieno[3,2-d]pyrimidin-6-yl)methyl)piperazin-1-yl)-5-methylhex-5-ene-1,4-dione] | 10 to 100 nM | > 1000 nM | > 1000 nM | < 20 nM | 100 to 1000 nM | 100 to 1000 nM | completely modify | – | – | – | –
2 | C=C(C)C(=O)CCC(=O)N1CCN(Cc2cc3nc(-c4cccc(O)c4)nc(N4CCOCC4)c3s2)CC1 [II-a-49, 1-(4-((2-(3-hydroxyphenyl)-4-morpholinothieno[3,2-d]pyrimidin-6-yl)methyl)piperazin-1-yl)-5-methylhex-5-ene-1,4-dione] | 10 to 100 nM | > 1000 nM | – | < 20 nM | 100 to 1000 nM | 100 to 1000 nM | complete modification; also recorded: covalent modification | 616 Da | – | – | –
3 | C/C=C/C(=O)CCC(=O)N1CCN(Cc2cc3nc(-c4cccc(O)c4)nc(N4CCOCC4)c3s2)CC1 [II-a-50, (E)-1-(4-((2-(3-hydroxyphenyl)-4-morpholinothieno[3,2-d]pyrimidin-6-yl)methyl)piperazin-1-yl)hept-5-ene-1,4-dione] | < 10 nM | > 1000 nM | – | < 20 nM | 100 to 1000 nM | 100 to 1000 nM | completely modify | – | – | – | –
4 | CC/C=C/C(=O)CCC(=O)N1CCN(Cc2cc3nc(-c4cccc5[nH]ncc45)nc(N4CCOCC4)c3s2)CC1 [II-a-53, (E)-1-(4-((2-(1H-indazol-4-yl)-4-morpholinothieno[3,2-d]pyrimidin-6-yl)methyl)piperazin-1-yl)oct-5-ene-1,4-dione] | < 10 nM | > 1000 nM | – | 20 to 100 nM | 100 to 1000 nM | 100 to 1000 nM | completely modify | – | – | – | –
5 | O=C(/C=C/C1CC1)CCC(=O)N1CCN(Cc2cc3nc(-c4cccc5[nH]ncc45)nc(N4CCOCC4)c3s2)CC1 [II-a-55, (E)-1-(4-((2-(1H-indazol-4-yl)-4-morpholinothieno[3,2-d]pyrimidin-6-yl)methyl)piperazin-1-yl)-6-cyclopropylhex-5-ene-1,4-dione] | 10 to 100 nM | > 1000 nM | > 1000 nM | 20 to 100 nM | 100 to 1000 nM | 1000 to 10000 nM | completely modify | – | – | – | –

More lines, main results first:

Row | IC50 (PI3Kα (p110α/p85α)) | IC50 (PI3Kγ (p120γ)) | IC50 (PI3Kβ (p110β/p85α)) | EC50 (PI3K) | EC50 (HCT116 cells) | EC50 (SK-OV-3 cells) | covalent modification of PI3Kα (PI3Kα) | positive mass shift of PI3Kα (PI3Kα) | EC50 (Phospho-Akt(Ser473) [2]) | GI50 (SKOV3 cells) | Compound | EC50 (Phospho-Akt(Ser473) [1])
6 | 10 to 100 nM | – | 100 to 1000 nM | – | – | – | – | – | ≤ 10 nM | – | C/C=C/C(=O)CCC(=O)N1CCN(Cc2cc3nc(-c4cnc(N)nc4)nc(N4CCOCC4)c3s2)CC1 [II-a-112, (E)-1-(4-((2-(2-aminopyrimidin-5-yl)-4-morpholinothieno[3,2-d]pyrimidin-6-yl)methyl)piperazin-1-yl)hept-5-ene-1,4-dione] | 10 to 100 nM
7 | 10 to 100 nM | – | > 1000 nM | – | – | – | – | – | 10 to 100 nM | – | O=C(/C=C/c1ccccc1)CCC(=O)N1CCN(Cc2cc3nc(-c4cccc5[nH]ncc45)nc(N4CCOCC4)c3s2)CC1 [II-a-116, (E)-1-(4-((2-(1H-indazol-4-yl)-4-morpholinothieno[3,2-d]pyrimidin-6-yl)methyl)piperazin-1-yl)-6-phenylhex-5-ene-1,4-dione] | 10 to 100 nM
8 | 100 to 1000 nM | – | > 1000 nM | – | – | – | – | – | – | 10 to 100 nM | CC(C)=CC(=O)CCC(=O)N1CCN(C(=O)c2cc3nc(-c4cccc5[nH]ncc45)nc(N4CCOCC4)c3s2)CC1 [II-a-160, 1-(4-(2-(1H-indazol-4-yl)-4-morpholinothieno[3,2-d]pyrimidine-6-carbonyl)piperazin-1-yl)-6-methylhept-5-ene-1,4-dione] | –
